Results published in US9492450B2, “Inhibition of dynamin related protein 1 to promote cell death” (University of Pittsburgh—of the Commonwealth System of …, priority 2011, dated 2016).

Columns and labels:
[1] = test system: H1299 cells; test: Mitochondrial function: ATP, OCR, ECAR, TMRM membrane potential; assay type: cell-based, human; details: 50 μM, 4 h
Method: FIG. 25A-I. Mdivi-1 causes mitochondrial dysfunction and its combination with cisplatin induces mitochondrial swelling that triggers Bax/Bak-independent MOMP. (A) MDA-MB-231 cells and H1299 cells were treated as indicated for 4 h and subjected to ATP determination. […] (B, C) OCR and ECAR were measured after 4 h treatment of H1299 cells with agents alone or the combination (C/M). (D) H1299 cells were treated as indicated for 4 h. Mitochondrial membrane potential was determined with TMRM. (E) Bax/Bak double knockout MEF cells were treated with DMSO or the combination, with or without the presence of 10 μM FCCP for 2 h. Mitochondrial membrane potential was measured as in D. (F) Bax/Bak double knockout MEF cells were treated as indicated for 2 h, ROS generation was determined with DCF-DA. (G) Bax/Bak double knockout MEF cells were pre-incubated with 5 μM MitoSox for 30 min, and then treated as indicated for 2 h followed by flow cytometry. […] Mitochondrial morphology was analyzed by confocal microscopy. […] Mitochondrial ultrastructure was analyzed by electron microscopy. […]
Total cellular ATP content was determined using a luminescent ATP detection kit, ATPlite (PerkinElmer Life Sciences, Boston, Mass.), according to the manufacturer's instruction. The luminescence intensity was measured using a microplate reader, Synergy 2 (BioTek instruments, Winooski, Vt.). […]

[2] = test system: MDA-MB-231 cells; test: Cisplatin cytotoxicity under Drp1 inhibition (subG1, LIVE/DEAD kit, caspase Western blot); assay type: cell-based, human
Method: To test the effect of Drp-1 inhibition on the effectiveness of cisplatin, in a first series of experiments, MDA-MB-231 cells were transfected with control or Drp1 siRNA, and 48 hours later were then treated with 40 μM of cisplatin for a 24 hour period. The effect of different concentrations of cisplatin on the Drp1 knockdown cells is shown in FIG. 13A, where the subG1 portion in the cell cycle profile indicates cytotoxicity. In a second series of experiments, a LIVE/DEAD Viability/Cytotoxicity kit (Invitrogen) was used to evaluate the effect of inhibition of Drp1 by mdivi-1 on cisplatin cytotoxicity. In this test, the percentage of lice and dead cells are determined simultaneously with two probes, calcein AM and ethidium homodimer (EthD-1). […] EthD-1 is excluded by the intact plasma membrane of live cells but is able to enter cells with damaged membranes and undergo a 40-fold enhancement of red fluorescence upon binding to nucleic acids. […] Calcein AM and EthD-1 were added to the cell suspension at final concentrations of 0.1 μM and 8 μM, respectively, Fluorescence intensity was analyzed on a CyAn ADP Analyzer (Beckman Coulter, Brea, Calif.) and the results were analyzed using Summit software. The live-cell population that was positively stained with calcein was detected in the bottom right region and indicated with an arrow. […]

[3] = molecular target: T1, Dnm1, the yeast ortholog of Drp1 (Saccharomyces cerevisiae, UniProt P54861); details: US2005/0038051 and US2008/0287473; cited from earlier work
T1 sequence (P54861 1-757): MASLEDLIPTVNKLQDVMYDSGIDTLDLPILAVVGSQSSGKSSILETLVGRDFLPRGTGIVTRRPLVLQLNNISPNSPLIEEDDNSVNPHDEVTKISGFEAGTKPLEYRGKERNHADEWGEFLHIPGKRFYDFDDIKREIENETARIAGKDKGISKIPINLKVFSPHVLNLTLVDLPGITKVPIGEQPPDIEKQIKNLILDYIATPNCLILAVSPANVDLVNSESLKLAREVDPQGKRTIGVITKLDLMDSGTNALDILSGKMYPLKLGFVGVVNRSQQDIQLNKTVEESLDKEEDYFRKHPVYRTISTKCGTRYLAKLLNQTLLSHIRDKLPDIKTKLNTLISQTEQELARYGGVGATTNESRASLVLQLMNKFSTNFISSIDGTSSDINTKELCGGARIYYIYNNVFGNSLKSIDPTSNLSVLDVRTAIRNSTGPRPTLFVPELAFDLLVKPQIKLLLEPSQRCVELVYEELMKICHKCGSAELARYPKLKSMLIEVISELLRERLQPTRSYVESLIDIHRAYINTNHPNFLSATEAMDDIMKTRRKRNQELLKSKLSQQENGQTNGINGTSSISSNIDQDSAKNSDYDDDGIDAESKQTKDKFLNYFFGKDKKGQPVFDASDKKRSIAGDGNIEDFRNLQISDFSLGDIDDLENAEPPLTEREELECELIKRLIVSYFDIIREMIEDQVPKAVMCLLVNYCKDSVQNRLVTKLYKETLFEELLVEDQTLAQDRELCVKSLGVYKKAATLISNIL

COc1cc(-n2c(=S)[nH]c3ccccc3c2=O)c(Cl)cc1Cl [mdivi-1]
extracellular acidification rate (ECAR) [1]: enhanced the extracellular acidification rate | oxygen consumption rate (OCR) / mitochondrial respiration [1]: suppressed mitochondrial respiration | number of dead cells after cisplatin, coadministered with mdivi-1 ([2]; 50 μM mdivi-1, 12 hours, LIVE/DEAD kit): increased | number of apoptotic cells after cisplatin, coadministered with mdivi-1 ([2]; caspase activation by Western Blot): increased | inhibition of Dnm1 [3]: selective inhibitor
